PubChem BioAssay (NCI)
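In this assay, cells in 96-well plates receive the compound at five concentrations for 48 hours. Endpoints are linearly interpolated between the surrounding concentrations. Definition used: TGI = concentration required for complete inhibition of growth.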

Key:
Experiment in all cases: NCI tumour cell line growth inhibition, 48 h
HCT-116 colon = test system: HCT-116 colon
HOP-92 NSCLC = test system: HOP-92 NSCLC
MCF7 breast = test system: MCF7 breast
NCI/ADR-RES ovarian = test system: NCI/ADR-RES ovarian
A498 renal = test system: A498 renal
RXF 393 renal = test system: RXF 393 renal
MDA-MB-231 breast = test system: MDA-MB-231 breast
LOX IMVI melanoma = test system: LOX IMVI melanoma
SK-MEL-2 melanoma = test system: SK-MEL-2 melanoma
SNB-75 CNS = test system: SNB-75 CNS

SMILES | TGI (HCT-116 colon) [µM] | TGI (HOP-92 NSCLC) [µM] | TGI (MCF7 breast) [µM] | TGI (NCI/ADR-RES ovarian) [µM] | TGI (A498 renal) [µM] | TGI (RXF 393 renal) [µM] | TGI (MDA-MB-231 breast) [µM] | TGI (LOX IMVI melanoma) [µM] | TGI (SK-MEL-2 melanoma) [µM] | TGI (SNB-75 CNS) [µM]
O=C(O)C(Cc1ccccc1)N1C(=O)c2ccccc2C1=O (centres undefined) | > 100 | > 100 | > 100 | > 100 | > 100 | > 100 | > 100 | > 100 | > 100 | –
N=C(N)C(N=Nc1ccccc1)C(=N)N (centres undefined) | > 100 | 83.9 | > 100 | > 100 | > 100 | > 100 | 97.8 | > 100 | 91.9 | –
COc1nc(C#CCCCC#N)nc(OC)n1 | 41.3 | – | 22.1 | > 100 | 37.6 | 30.9 | 29.3 | 14.2 | 32.2 | 75.7
O=C1CC(n2cccc2)c2cc(Br)sc21 (centres undefined) | > 100 | > 100 | > 100 | > 100 | > 100 | – | > 100 | > 100 | > 100 | > 100
CC(=O)OCCC[C@@H]1C(=C(C)C)CCC2[C@@]1(C)CC[C@@]1(C)C[C@](C)(CCC=C(C)C)CC[C@]21C (some centres undefined) | > 100 | – | > 100 | > 100 | > 100 | – | > 100 | – | – | > 100
CC1=CC[C@@]2(C)[C@@H]([C@@H]1C)[C@H]1CC[C@@H]3[C@@]4(C)CC[C@H](O)C(C)(C)[C@@H]4CC[C@@]3(C)[C@]1(C)C[C@@H]2O | > 58 | 53 | > 100 | 61.7 | > 39.8 | 28.5 | 20.2 | 16 | > 59 | > 100
C=CCOCCCC(=O)C(=[N+]=[N-])C(=O)OC | > 100 | > 100 | – | – | > 100 | > 100 | – | > 100 | > 100 | > 100
OC(c1ccc(-c2ccccc2)cc1)(c1ccc(-c2ccccc2)cc1)c1ccc(-c2ccccc2)cc1 | > 100 | – | > 100 | > 100 | – | > 100 | > 100 | > 100 | – | –
OC1C=C2C3CN(Cc4cc5c(cc43)OCO5)[C@H]2C[C@@H]1O (some centres undefined) | 25.1 | 46.9 | 22.2 | 75.6 | 39.9 | 21.4 | 68.5 | > 100 | 11.9 | 4.56
O=C1CS(=O)(=O)C(c2cccc(Oc3ccccc3)c2)N1c1cccc(Cl)c1Cl (centres undefined) | 40.9 | 41.6 | 21.2 | – | – | 66.9 | 70.6 | 47.7 | 40.1 | 92.3
O=C(NN1C(=O)/C(=C/c2ccc(Cl)cc2)N=C1c1ccccc1)c1c(Cl)c(Cl)c(Cl)c(Cl)c1-c1nc2ccccc2[nH]1 | 45.2 | 37.3 | 60.3 | 42.2 | 44.5 | – | – | 62.8 | 61.7 | 52.6
O=C1c2ccccc2-c2ccc(O)cc21 | > 100 | – | 67.2 | 84.5 | 41.8 | 32.9 | 44.2 | 97.5 | 46.5 | > 100
O=C1CCC(NC(=O)Cc2ccc(O)cc2)C(=O)N1 (centres undefined) | > 2500 | > 2500 | – | – | > 2500 | – | – | > 2500 | – | > 2500
CN(C)CCNc1c([N+](=O)[O-])cc2c3c(cccc13)C(=O)N(CCN(C)C)C2=O | 15.3 | 2.36 | > 20.4 | 9.32 | 4.34 | 3.69 | – | 4.01 | 3.39 | 4.18
N#CCc1[nH]nc2nc(SCc3ccccc3)nc(N3CCCCC3)c12 | 32.4 | 31.6 | 40.4 | 32.3 | 73.4 | 32.2 | – | 43 | 39.3 | 33.7
CCN(CC)/C(=C\Cl)Nc1ccccn1 | > 100 | > 100 | – | – | > 100 | > 100 | – | > 100 | > 100 | > 100
S=C(NCCCCCCNC(=S)Nc1c2ccccc2nc2ccccc12)Nc1c2ccccc2nc2ccccc12 | > 100 | > 100 | > 100 | > 100 | > 100 | > 100 | – | > 100 | > 100 | > 100
Cc1cc(C)n(C(=O)C(C)Sc2nnc(SC(C)C(=O)n3nc(C)cc3C)s2)n1 (centres undefined) | > 100 | > 100 | > 100 | > 100 | > 100 | > 100 | > 100 | > 100 | > 100 | > 100
